The values that follow come from patent US11083735B2, “Methods for treating sleep disorders, sleep disturbances, and related symptoms using aminosterol compositions” (Enterin, Inc., priority 2017, dated 2021).

The subject of one assay is patients with PD. The assay is described as follows: Phase 2 trial Stage 2: sleep diary (total sleep time, arm or leg thrashing / RBD). In kind it is in vivo, human. On the procedure: FIG. 18 is a chart of total sleep time in relation to squalamine dose. Total sleep time was obtained from the sleep diary by subtracting awake time during the night from total time spent in bed. Total sleep time per night was logged for each patient at baseline, each dosing period and at washout, and the means were determined. The light grey bar represents the baseline value for each cohort at a given dose level and the dark grey bar represents the value for the same cohort at the stated dose of squalamine (ENT-01; Kenterin™). The number of patients represented at each value are: Baseline, 33; 75 mg, 21; 100 mg, 28; 125 mg, 18; 150 mg, 15; 175 mg, 12; 200 mg, 7; 225 mg, 3; 250 mg, 2; washout, 33. P values were as follows: 75 mg, p=0.4; 100 mg, p=0.1; 125 mg, p=0.3; 150 mg, p=0.07; 175 mg, p=0.03; 200 mg, p=0.3; 225 mg, p=0.5; 250 mg, p=0.3; wash-out, p=0.04 (paired t test).
The frequency of arm or leg thrashing reported in the sleep diary diminished progressively from 2.2 episodes/week at baseline to 0 at maximal dose.
(5) Sleep Diary (participants completed a sleep diary on a daily basis throughout the study. The diaries included time into bed and estimated time to sleep as well as wake time and duration during the night.);
Exploratory end-points, in addition to constipation, included for example, (i) depression assessed using the Beck Depression Inventory (BDI-II) (Steer et al. 2000) and Unified Parkinson's Disease Rating Scale (UPDRS); (ii) cognition assessed using the Mini Mental State Examination (MMSE) (Palsteia et al. 2018), Unified Parkinson's Disease Rating Scale (UPDRS), and Trail Making Test (TMT); (iii) sleep and REM-behavior disorder (RBD) using a daily sleep diary, I-Button Temperature Assessment, a REM sleep behavior disorder (RBD) questionnaire (RBDQ) (Stiasny-Kolster et al. 2007), and the UPDRS; (iv) hallucinations assessed using the PD hallucinations questionnaire (PDHQ) (Papapetropoulos et al. 2008), the UPDRS, and direct questioning; (v) fatigue using the Parkinson's Disease Fatigue Scale (PFS-16) and the UPDRS; (vi) motor functions using the UPDRS; and (vii) non-motor functions using the UPDRS.

For assay [1], the system named is patients with PD and constipation. Nature of the assay: Phase 2 trial Stage 1 (single escalating dose): prokinetic response (CSBM within 24 hours). The assay is classed as in vivo, human. The method, then: FIGS. 16A-16B show prokinetic activity of squalamine (ENT-01, a synthetic squalamine salt comprising squalamine as the active ion). […] Patients with baseline CSBM<1 required a higher dose (mean, 192 mg) of squalamine than patients with CSBM≥1 (mean, 120 mg).
Tolerability limits included diarrhea or vomiting.

A further assay concerns the target αS (Homo sapiens, UniProt P37840). As to conditions: in vitro (Perni et al. 2017); cited from earlier work.
In assay [2] the test system is patient with sleeping disorder. Nature of the assay: Example 2: patient with sleeping disorder and constipation, oral squalamine, sleep diary and I-button. The assay is classed as in vivo, human. The method, then: The patient had very significant delay in sleep onset, fragmented sleep, thrashing of arms and legs (RBD) and daytime somnolence. On polysomnography, they had apneic spells up to 17 seconds in duration with an oxygen desaturation as low as 93%. The patient slept no more than 3-4 hours, awakened 3-4 times, and each awakening lasted 30-60 minutes. Medications included clonazepam and laxatives.
Clonazepam and laxatives were discontinued and they were started on 100 mg of squalamine every other day at bedtime. This regimen had no effect on their sleep or constipation. […] They were then switched to 150 mg daily taken in the morning.
The patient's skin temperature was also monitored for fluctuations at the wrist using a temperature sensor (I-button) mounted on a wrist-band. Skin temperature at the wrist increases from about 30° C. during the day to 36° C. at night in normal individuals. This diurnal variation of skin temperature correlates well with sleep-wake cycles. When it reaches 34° C., subjects fall asleep; during the night, if it falls below 34° C., subjects awaken. During the day, skin temperature is below 30° C. and subjects remain awake.
Once the patient's Circadian rhythm was restored, the patient started sleeping better at night and stopped falling asleep during the day.

The subject of another assay is vagal afferent fibers. The assay is described as follows: Multiunit firing of a jejunal branch of the vagus (mesenteric nerve). Details: species or system mouse. Particulars: luminal squalamine. The method, then: Squalamine was applied into the lumen by gravity feed 11 min after beginning the recording. […] The Control represents background discharge before applying squalamine, and the Peak gives the average firing frequency during a 3 min period at the peak of the response.
To determine whether the electrical activity stimulated by the luminal application of squalamine was principally contained within the ENS of the intestine, or whether it communicated information rostrally to the CNS, a further experiment was designed in which multiunit fiber firing rates were measured from a single jejunal branch of the vagus. Squalamine was introduced 11 minutes after recordings were begun. Vagal afferent firing frequency increased almost immediately thereafter to 3 fold the initial rate within a few minutes.

The subject of assay [3] is colons from WT (1 yr old FVB/NJ) mice. The assay is described as follows: Isolated colon motility, WT mice. Details: species or system mouse. The source says: FIGS. 14A-14B show additional effects of squalamine in mice.
Parkinson's disease is associated with varying degrees of constipation, typically beginning decades before diagnosis, and all too often has a profound negative impact on quality of life. It is believed that the ENS in PD is damaged earlier but by the same processes that damage the neurons of the CNS. In our clinical experience oral administration to several individuals with advanced Parkinson's disease corrected long standing constipation within days of initiation of treatment. We explored whether the human experience could be reproduced in the mouse. In the experiments illustrated below studies of colonic motility were conducted using organs from WT (1 yr old FVB/NJ) or PD mice, in which the murine αSynuclein gene has been excised and replaced by several copies of the human αSynuclein gene driven by the normal murine promoter.
The isolated colon from the PD strain presents a more sluggish peristaltic wave than that from the WT animal (black columns).

[4] abbreviates: 150 mg daily taken in the morning.

The structures appear in SMILES notation. Values joined by “and” are separate entries in the source; they are usually repeats but may differ in a detail not shown here. Identical values can stand only once.

For the compound `CC(C)[C@@H](CC[C@@H](C)[C@H]1CC[C@H]2[C@@H]3[C@H](O)C[C@H]4C[C@@H](NCCCNCCCCN)CC[C@]4(C)[C@H]3CC[C@]12C)OS(=O)(=O)O` (single isomer, unassigned; ent-01) [ENT-01], the “increase of total sleep time” value in the assay on patients with PD (250 mg vs baseline) turned out to be 18%. For the same compound, the Total sleep time is 8.4 h in the assay on patients with PD (at 250 mg, baseline 7.1) and “consistently higher than baseline” in the assay with patients with PD (beyond 125 mg). The “improvement of arm or leg thrashing frequency” value in the assay on patients with PD (at maximal dose vs baseline) amounted to 100%. Besides, the “frequency of arm or leg thrashing reported in the sleep diary” value with patients with PD (at maximal dose, baseline 2.2) stood at 0 episodes/week. Also, the cumulative response rate in assay [1] (25 mg) is 25%; in assay [1] (200 mg (maximum)), 80%. Also, at αS, the “formation of aggregates of αS” value is “inhibit the formation of aggregates”.

As for `CC(C)[C@@H](CC[C@@H](C)[C@H]1CC[C@H]2[C@@H]3[C@H](O)C[C@H]4C[C@@H](NCCCNCCCCN)CC[C@]4(C)[C@H]3CC[C@]12C)OS(=O)(=O)O` [squalamine], the “effect on sleep or constipation” value in assay [2] (100 mg every other day at bedtime) is “no effect”. Besides, in assay [2] (100 mg given at night, FIG. 8A), the “time to fall asleep (I-button)” value was found to be 2.5 h and the “total sleep per night (I-button)” value amounted to 3 h. Also, in assay [2] (125 mg switch, days 114-118), the Delay was determined as 45 min; the Fragments awake is 60 min; the Total hrs sleep was 7.5 h and 6.5 h and 8.0 h. Besides, the “total hours of sleep (I-button)” value in assay [2] (150 mg) lay in the range of 4 to 5 h. Moreover, the Total hrs sleep in assay [2] (150 mg daily am dose, Mean row covers all on-treatment days (pre mean 6.2)) came out at 6.0 h. The compound further showed a Fragments awake in assay [2] (150 mg daily am dose, Mean row covers all on-treatment days (pre mean 90)) of 120 min. Also, the “effect on sleep or constipation” value in assay [2] (150 mg daily at bedtime) is “without effect”. In assay [2] (setting [4]), the “arms and legs thrashing in the night” value is “stopped thrashing”; the bowels entry is given as “regularized almost immediately”. The “delay in sleep onset (I-button)” value in assay [2] (150 mg, FIG. 8C) is 1 h. In assay [2] (150 mg, FIG. 8D), the “delay in sleep onset (I-button)” value was 0.5 h. Moreover, the Sleep efficiency in assay [2] (On treatment (Pre-treatment 74)) was 82%. The “Fragments awake during night” value in assay [2] (On treatment (Pre-treatment 90)) is given as 56 min. The “Delay in falling asleep” value in assay [2] (On treatment (Pre-treatment 146)) is 60 min. In assay [2] (several months into treatment), the “diurnal rhythm (I-button, periodogram, FIG. 12)” value was “clearly been restored”. Moreover, the “persistence of increased firing rate” value in the assay with vagal afferent fibers is reported as “at least 20 minutes”. In addition, the “vagal afferent firing frequency relative to the initial rate” value in the assay with vagal afferent fibers (within a few minutes) was determined as 3 fold. For the same compound, in assay [3] (WT colon, FIG. 14B), the “speed of the colonic peristaltic wave” value was “stimulates the speed of the colonic peristaltic wave”. Also, the “force of peristaltic contractions” value in assay [3] (WT colon, squalamine added to lumen, FIG. 14A) is recorded as “increases the force of contractions”. The “colon migrating motor complex (MMC) peak pressure waves” value in assay [3] (intraluminal application, legend of FIG. 14A) is “no apparent effect”. For the same compound, the “MMC propagation velocity from oral to anal” value in assay [3] (intraluminal application, legend of FIG. 14B) is recorded as “increased”.
